Usually IC50 stands for the midpoint of a concentration-inhibition curve.

Where a name gives a salt, the structure may show the parent alone. A value given as a limit tells only on which side of the number the result lay.

In one test the test system is HepG2 cells. Nature of the test: CCK-8 antiproliferative assay, HepG2. It counts as cell-based. The settings on record: Homo sapiens, HepG2; CCK-8, 48 h, mean ± SD of three experiments; read-out: IC50 HepG2. The protocol:
(§1) All cells were cultured in Dulbecco’s Modified Eagle’s Medium (DMEM) (Burlington, MA, USA) or Roswell Park Memorial Institute (RPMI)-1640 medium containing 10% fetal bovine serum and 1% penicillin/streptomycin in an incubator at 37 °C and 5% CO2. […] Cell suspension with a concentration of 8 × 10^4 cells/mL was prepared after cell counting. 100 μL cell suspension was added to each well of the 96-well plate and then placed in an incubator overnight. Most of the derivatives were configured into 80 mM, 20 mM or 4 mM stock solution in DMSO, and the stock solution concentration of BFA and paclitaxel was 0.4 mM. […] The medium in each well was discarded, and 100 μL of gradient diluted derivative solution was added (the control group was added with serum-free medium).

The next test deals with MDA-MB-231 cells. Nature of the test: CCK-8 antiproliferative assay, MDA-MB-231. The class given is cell-based. The settings on record: Homo sapiens, MDA-MB-231; CCK-8, 48 h, mean ± SD of three experiments; read-out: IC50 MDA-MB-231. The protocol:
as §1
(In general: Tetrazolium dyes change colour on reduction, which living cells bring about.)

The test system of another test is A375 cells. In words: CCK-8 antiproliferative assay, A375. The class given is cell-based. The note with it: Homo sapiens, A-375; CCK-8, 48 h, mean ± SD of three experiments; read-out: IC50 A375. The protocol:
as §1

Another test deals with A549 cells. Nature of the test: CCK-8 antiproliferative assay, A549. It counts as cell-based. The note with it: Homo sapiens, A549; CCK-8, 48 h, mean ± SD of three experiments; read-out: IC50 A549. The protocol: as §1
In another test the test system is HeLa cells. Nature of the test: CCK-8 antiproliferative assay, HeLa. The class given is cell-based, human. The note with it: for IC50: Homo sapiens, HeLa, CCK-8, 48 h, mean ± SD of three experiments, read-out: IC50 HeLa; for SIHeLa, selectivity index between L-02 and HeLa: SI = IC50(L-02)/IC50(HeLa). As to the method:
as §1

For another test, the system named is L-02 cells. Nature of the test: CCK-8 cytotoxicity assay, normal liver L-02. The settings on record: Homo sapiens, L02; CCK-8, 48 h, normal liver cells, mean ± SD of three experiments; read-out: IC50 L-02. The class given is cell-based. As to the method:
as §1

With `C[C@H]1CCC/C=C/[C@@H]2C[C@H](OC(=O)/C=C\C(=O)OCCOC(=O)c3ccc(N=C=S)cc3)C[C@H]2[C@H](OC(=O)/C=C\C(=O)OCCOC(=O)c2ccc(N=C=S)cc2)/C=C/C(=O)O1` [Compound 8g, Bis(2-((4-isothiocyanatobenzoyl)oxy)ethyl) O,O’-((1R,2E,6S,10E,11aS,13S,14aR)-6-methyl-4-oxo-1,6,7,8,9,11a,12,13,14,14a-decahydro-4H-cyclopenta[f][1]oxacyclotridecine-1,13-diyl) dimaleate], the concentration for half-maximal inhibition (IC50) in the test on HepG2 cells was > 40 µM; with MDA-MB-231 cells it was > 40 µM; with A375 cells it was > 40 µM; in the test on A549 cells it was > 40 µM; in the test on HeLa cells, 9.74 ± 0.37 µM; in the test with L-02 cells, > 80 µM. The “SIHeLa, selectivity index between L-02 and HeLa” value in the test with HeLa cells is given as >8.21.

As to `C[C@H]1CCC/C=C/[C@@H]2C[C@H](O)C[C@H]2[C@H](OC(=O)CCC(=O)Oc2ccc(OC(=O)c3ccc(N=C=S)cc3)cc2)/C=C/C(=O)O1` [Compound 9f, (1R,2E,6S,10E,11aS,13S,14aR)-13-Hydroxy-6-methyl-4-oxo-1,6,7,8,9,11a,12,13,14,14a-decahydro-4H-cyclopenta[f][1]oxacyclotridecin-1-yl (4-((4-isothiocyanatobenzoyl)oxy)phenyl) succinate], the IC50 with HepG2 cells is 27.7 ± 0.47 µM; in the test on MDA-MB-231 cells, 32.1 ± 1.03 µM; in the test with A375 cells, 21.3 ± 0.33 µM; in the test with A549 cells, 16.18 ± 0.06 µM; with HeLa cells, 13.1 ± 0.45 µM; in the test with L-02 cells, 25.1 ± 0.82 µM. Moreover, the “SIHeLa, selectivity index between L-02 and HeLa” value with HeLa cells is given as 1.91.

For `C[C@H]1CCC/C=C/[C@@H]2C[C@H](OC(=O)CCC(=O)OCCCCOC(=O)c3ccc(N=C=S)cc3)C[C@H]2[C@H](OC(=O)CCC(=O)OCCCCOC(=O)c2ccc(N=C=S)cc2)/C=C/C(=O)O1` [Compound 8b, Bis(4-((4-isothiocyanatobenzoyl)oxy)butyl) O,O’-((1R,2E,6S,10E,11aS,13S,14aR)-6-methyl-4-oxo-1,6,7,8,9,11a,12,13,14,14a-decahydro-4H-cyclopenta[f][1]oxacyclotridecine-1,13-diyl) disuccinate], the IC50 with HepG2 cells was > 40 µM; in the test on MDA-MB-231 cells it was > 40 µM; with A375 cells, > 40 µM; in the test on A549 cells, > 40 µM; in the test on HeLa cells, 16.4 ± 1.35 µM; in the test with L-02 cells, > 80 µM. In addition, the “SIHeLa, selectivity index between L-02 and HeLa” value in the test on HeLa cells is >4.88.

Turning to `C[C@H]1CCC/C=C/[C@@H]2C[C@H](OC(=O)CCC(=O)Oc3ccc(OC(=O)c4ccc(N=C=S)cc4)cc3)C[C@H]2[C@H](OC(=O)CCC(=O)Oc2ccc(OC(=O)c3ccc(N=C=S)cc3)cc2)/C=C/C(=O)O1` [Compound 8f, Bis(4-((4-isothiocyanatobenzoyl)oxy)phenyl) O,O’-((1R,2E,6S,10E,11aS,13S,14aR)-6-methyl-4-oxo-1,6,7,8,9,11a,12,13,14,14a-decahydro-4H-cyclopenta[f][1]oxacyclotridecine-1,13-diyl) disuccinate], the IC50 is > 40 µM in the test on HepG2 cells; > 40 µM in the test on MDA-MB-231 cells; > 40 µM in the test with A375 cells; > 40 µM in the test on A549 cells; > 40 µM with HeLa cells; > 80 µM with L-02 cells.

As for `C[C@H]1CCC/C=C/[C@@H]2C[C@H](O)C[C@H]2[C@H](O)/C=C/C(=O)O1` [BFA, Brefeldin A], the IC50 with HepG2 cells was 0.12 ± 0.01 µM; in the test with MDA-MB-231 cells, 0.054 ± 0.001 µM; in the test with A375 cells, 0.039 ± 0.001 µM; with A549 cells, 0.056 ± 0.002 µM; in the test on HeLa cells, 0.044 ± 0.004 µM; in the test with L-02 cells, 0.094 ± 0.004 µM. Besides, in the test with HeLa cells, the “SIHeLa, selectivity index between L-02 and HeLa” value is reported as 2.14.

For the molecule `C[C@H]1CCC/C=C/[C@@H]2C[C@H](O)C[C@H]2[C@H](OC(=O)CCC(=O)OCCOC(=O)c2ccc(N=C=S)cc2)/C=C/C(=O)O1` [Compound 9a, (1R,2E,6S,10E,11aS,13S,14aR)-13-Hydroxy-6-methyl-4-oxo-1,6,7,8,9,11a,12,13,14,14a-decahydro-4H-cyclopenta[f][1]oxacyclotridecin-1-yl (2-((4-isothiocyanatobenzoyl)oxy)ethyl) succinate], the 50% inhibitory concentration (IC50) worked out at 5.93 ± 0.03 µM in the test on HepG2 cells; 8.04 ± 0.01 µM in the test with MDA-MB-231 cells; 2.07 ± 0.09 µM in the test with A375 cells; 8.29 ± 0.1 µM with A549 cells; 2.69 ± 0.3 µM in the test on HeLa cells; 15.5 ± 1.22 µM with L-02 cells. In the test on HeLa cells, the “SIHeLa, selectivity index between L-02 and HeLa” value was found to be 5.75.

`CC(=O)O[C@H]1C(=O)[C@@]2(C)[C@H]([C@H](OC(=O)c3ccccc3)[C@]3(O)C[C@H](OC(=O)[C@H](O)[C@@H](NC(=O)c4ccccc4)c4ccccc4)C(C)=C1C3(C)C)[C@]1(OC(C)=O)CO[C@@H]1C[C@@H]2O` [paclitaxel, reference compound]: the IC50 in the test with HepG2 cells was determined as 0.55 ± 0.03 µM; in the test with MDA-MB-231 cells, 0.33 ± 0.03 µM; in the test on A375 cells it was 0.059 ± 0.001 µM; in the test on A549 cells it was 0.014 ± 0.002 µM; with HeLa cells it was 0.034 ± 0.002 µM; with L-02 cells, 0.13 µM. The “SIHeLa, selectivity index between L-02 and HeLa” value in the test with HeLa cells was 3.82.

On to `C[C@H]1CCC/C=C/[C@@H]2C[C@H](OC(=O)/C=C\C(=O)OCCCCOC(=O)c3ccc(N=C=S)cc3)C[C@H]2[C@H](OC(=O)/C=C\C(=O)OCCCCOC(=O)c2ccc(N=C=S)cc2)/C=C/C(=O)O1` [Compound 8h, Bis(4-((4-isothiocyanatobenzoyl)oxy)butyl) O,O’-((1R,2E,6S,10E,11aS,13S,14aR)-6-methyl-4-oxo-1,6,7,8,9,11a,12,13,14,14a-decahydro-4H-cyclopenta[f][1]oxacyclotridecine-1,13-diyl) dimaleate], for which the IC50 in the test with HepG2 cells was > 40 µM; in the test with MDA-MB-231 cells, > 40 µM; with A375 cells, > 40 µM; with A549 cells, > 40 µM; with HeLa cells, 8.48 ± 0.72 µM; in the test with L-02 cells it was > 80 µM.

For the molecule `C[C@H]1CCC/C=C/[C@@H]2C[C@H](OC(=O)c3ccc(N=C=S)cc3)C[C@H]2[C@H](O)/C=C/C(=O)O1` [Compound 7, (1R,2E,6S,10E,11aS,13S,14aR)-1-Hydroxy-6-methyl-4-oxo-1,6,7,8,9,11a,12,13,14,14a-decahydro-4H-cyclopenta[f][1]oxacyclotridecin-13-yl 4-isothiocyanatobenzoate], the IC50 is > 40 µM in the test on HepG2 cells; 17 ± 1.21 µM in the test on MDA-MB-231 cells; 5.78 ± 0.1 µM in the test with A375 cells; 20.4 ± 1.31 µM in the test on A549 cells; 3.02 ± 0.23 µM with HeLa cells; 8.6 ± 0.71 µM in the test with L-02 cells. Besides, the “SIHeLa, selectivity index between L-02 and HeLa” value with HeLa cells came to 2.85.

For `C[C@H]1CCC/C=C/[C@@H]2C[C@H](O)C[C@H]2[C@H](OC(=O)/C=C\C(=O)OCCOC(=O)c2ccc(N=C=S)cc2)/C=C/C(=O)O1` [Compound 9g, (1R,2E,6S,10E,11aS,13S,14aR)-13-Hydroxy-6-methyl-4-oxo-1,6,7,8,9,11a,12,13,14,14a-decahydro-4H-cyclopenta[f][1]oxacyclotridecin-1-yl (2-((4-isothiocyanatobenzoyl)oxy)ethyl) maleate], the IC50 in the test with HepG2 cells was determined as 12.8 ± 0.15 µM; with MDA-MB-231 cells it was 7.51 ± 0.07 µM; in the test with A375 cells it was 11.9 ± 0.54 µM; in the test on A549 cells, 10.4 ± 0.59 µM; in the test with HeLa cells, 3.63 ± 0.23 µM; in the test on L-02 cells it was 20.9 ± 0.49 µM. For the same molecule, the “SIHeLa, selectivity index between L-02 and HeLa” value in the test with HeLa cells is 5.75.

`C[C@H]1CCC/C=C/[C@@H]2C[C@H](OC(=O)/C=C\C(=O)OCC#CCOC(=O)c3ccc(N=C=S)cc3)C[C@H]2[C@H](OC(=O)/C=C\C(=O)OCC#CCOC(=O)c2ccc(N=C=S)cc2)/C=C/C(=O)O1` [Compound 8i, Bis(4-((4-isothiocyanatobenzoyl)oxy)but-2-yn-1-yl) O,O’-((1R,2E,6S,10E,11aS,13S,14aR)-6-methyl-4-oxo-1,6,7,8,9,11a,12,13,14,14a-decahydro-4H-cyclopenta[f][1]oxacyclotridecine-1,13-diyl) dimaleate]: the 50% inhibitory concentration (IC50) with HepG2 cells was > 40 µM; in the test with MDA-MB-231 cells, > 40 µM; with A375 cells, > 40 µM; in the test on A549 cells, > 40 µM; in the test on HeLa cells, > 40 µM; in the test on L-02 cells, > 80 µM.

As to `C[C@H]1CCC/C=C/[C@@H]2C[C@H](O)C[C@H]2[C@H](OC(=O)CCC(=O)OCCCCOC(=O)c2ccc(N=C=S)cc2)/C=C/C(=O)O1` [Compound 9b, (1R,2E,6S,10E,11aS,13S,14aR)-13-Hydroxy-6-methyl-4-oxo-1,6,7,8,9,11a,12,13,14,14a-decahydro-4H-cyclopenta[f][1]oxacyclotridecin-1-yl (4-((4-isothiocyanatobenzoyl)oxy)butyl) succinate], the concentration for half-maximal inhibition (IC50) in the test on HepG2 cells turned out to be 6.54 ± 0.18 µM; in the test on MDA-MB-231 cells, 2.23 ± 0.04 µM; with A375 cells it was 2.79 ± 0.25 µM; in the test with A549 cells it was 2.84 ± 0.02 µM; in the test on HeLa cells, 2.28 ± 0.04 µM; in the test with L-02 cells it was 10.6 ± 0.6 µM. For the same molecule, in the test on HeLa cells, the “SIHeLa, selectivity index between L-02 and HeLa” value came to 4.63.
